The values that follow are results of earlier work, collected in US6855351B2, “Pesticide formulation containing azadirachtin (not less than 300 ppm) and salanin in a formulated product with neem oil” (T. Stanes and Company Limited, priority 2002, dated 2005).

For the series, the system named is mammals. Particulars: in vivo.

Regarding `C/C=C(\C)C(=O)O[C@H]1C[C@@H](OC(C)=O)[C@@]2(C(=O)OC)CO[C@H]3[C@@H](O)[C@@](C)([C@]45O[C@@]4(C)[C@H]4C[C@@H]5O[C@@H]5OC=C[C@@]54O)[C@H]4[C@]1(CO[C@]4(O)C(=O)OC)[C@@H]32` [Azadirachtin], the mammalian toxicity result was “no apparent mammalian toxicity”.
